Measured values taken from patent US20240299358A1, “COMPOSITIONS AND METHODS FOR DIAGNOSIS AND TREATMENT OF AUTOIMMUNE DISEASES” (DUKE UNIVERSITY, priority 2021, published 2024).

What was measured:
eHsp90 = assay: Flow cytometry uptake of fluor-tethered Hsp90 inhibitors by T cells from human PBMCs; type: cell-based; conditions: anti-CD3/28 stimulated human PBMCs, following activation (FIG. 3A)
Method: T-cell activation: PBMC aliquots (ZenBio SER-PBMC-F) were washed in RPMI-1640 with 10% FBS and PSG and then rested overnight in a T-75 flask. The suspended cells were then transferred to a fresh flask and activated in fresh RPMI-1640/10% FBS/PSG by 3:20,000 anti-CD3 (BioLegend 317303), 3:20,000 anti-CD28 (BioLegend 302913), and 1:10,000 (30 IU/mL) human IL-2 (CST 8907SC) and incubated for up to 72 hours. In the experiments with longer activation, samples were diluted 1:3 into fresh media containing hIL-2 at 72 hours post initial stimulation with CD3/CD28 antibodies.
Flow Cytometry: The activated/rested cells were plated into a 96-well round bottom plate and pelleted at low speed. Cells were resuspended in chilled media containing titrated HS-131 or HS-198 (in 1% DMSO) and stained for 30 minutes at RT. Fluorochrome tagged inhibitors and media were washed away with a PBS wash, followed by a PBS wash containing 3% NMS. Surface antibody stains were performed in 3% NMS/PBS for 30 minutes followed by PBS washes (2x). Samples were analyzed on BD FACSCanto II flow cytometer. Permeabilized samples were prepared as previously described followed by fixation in 4% Formaldehyde/PBS overnight at 4° C. Sample analysis was performed with Flowing Software and FlowJo.
A hallmark of T cell function is to proliferate rapidly in response to antigen presentation along with appropriate cytokine and costimulatory signaling. This leads to the induction of the chaperone machinery which is essential in facilitating this process. In some respects, antigen induced T cell proliferation may be analogous to oncogene driven metastasis. Therefore, to investigate whether proliferating T cells similarly express eHsp90 during T cell activation, their ability to absorb fluor-tethered Hsp90 inhibitors following an anti-CD3/CD28 challenge was examined (see. FIGS. 2A-2E). The structures of two types of fluor-tethered Hsp90 inhibitors (HS-131 and […]) that were used in the present studies are shown in FIG. 2A. […]

[1] = tested on: collagen induced arthritic (CIA) mouse model; assay: Therapeutic efficacy in CIA mouse model (clinical score and joint histology); type: in vivo; conditions: 30 mg/kg QD
Method: FIGS. 9A-9E illustrate therapeutic potential of eHsp90 targeted therapies for the treatment of auto immune diseases. […] FIG. 9D are representative photomicrographs of forepaw, knee and ankle from a disease control (Naïve), diseased vehicle treated and HS-131 treated animals. “W” identifies wrist, arrows identifies representative affected joints, and “S” identifies inflammation. […] Experiment was performed once with 12 biological replicates per group.
CIA Disease: Collagen was prepared at 4 mg/ml in 0.01 N acetic acid. Equal volumes of 4 mg/ml collagen and 5 mg/ml Freund's complete adjuvant were emulsified by hand mixing with syringes for approximately 5 min, at which point a bead of this material holds its form when placed in water. On study days 0 and 21, animals were anesthetized with isoflurane and given intradermal injections of a total of 400 μg of type II collagen in Freund's complete adjuvant at the base of the tail.
CIA Experimental Design: Mice were randomized into treatment groups by body weight on study day 18. Animals were treated from day 21-36 of the study with either 20 μL of HS-131 (30 mg/kg) PO, QD or vehicle (DMSO) PO, QD. On study day 36, the mice were euthanized for necropsy. Clinical scores were given for each of the paws (right front, left front, right rear, left rear) on study days 21-36. 0=normal, 1=one hind or fore paw joints affected or minimal diffuse erythema and swelling, 2=two hind or fore paw joints affected or moderate diffuse erythema and swelling, 3=three hind or fore paw joints affected or moderate diffuse erythema and swelling, 4=four hind or fore paw joints affected or marked diffuse erythema and swelling, 5=entire paw affected, severe diffuse erythema and severe swelling, unable to flex digits. Experimenter was blinded from the treatment group during clinical evaluation and scoring.
Immunohistological Staining: After 24-48 hours in fixative and 4-5 days in 5% formic acid for decalcification, tissues were trimmed, and processed for paraffin embedding. Paws were embedded in paraffin in the frontal plane and the knees were embedded with the patella facing down. Ankles, if left attached to the hind paw, were also embedded in the frontal plane but may be detached and sectioned in the sagittal plane for special purposes. Sections were cut and stained with toluidine blue.
0=Normal. 0.5=Very minimal, affects only 1 joint or minimal multifocal periarticular infiltration of inflammatory cells. 1=Minimal infiltration of inflammatory cells in synovium and periarticular tissue of affected joints. 2=Mild infiltration of inflammatory cells. When referring to paws, generally restricted to affected joints (1-3 affected). 3=Moderate infiltration with moderate edema. When referring to paws, restricted to affected joints, generally 3-4 joints and the wrist or ankle. 4=Marked infiltration affecting most areas with marked edema, 1 or 2 unaffected joints may be present. 5=Severe diffuse infiltration with severe edema affecting all joints (to some extent) and periarticular tissues.
0=Normal. 0.5=Very minimal, affects only one area of the synovium or minimal multifocal periarticular infiltration of inflammatory cells. 1=Minimal infiltration of inflammatory cells in synovium and periarticular tissue of affected synovial areas. 2=Mild diffuse infiltration of inflammatory cells. 3=Moderate diffuse infiltration of inflammatory cells. 4=Marked diffuse infiltration of inflammatory cells. 5=Severe diffuse infiltration of inflammatory cells.
0=Normal. 0.5=Very minimal=Affects marginal zones only of one to several areas (knees) or joints (paws). 1=Minimal=Generally minimal to mild loss of toluidine blue staining (proteoglycan) with no obvious chondrocyte loss or collagen disruption in affected joints/areas. 2=Mild=Generally mild loss of toluidine blue staining (proteoglycan) with focal areas of chondrocyte loss and/or collagen disruption in some affected joints/areas. […]

**Q.** Which results are given for `Cc1nn(-c2ccc(C(N)=O)c(NCCCOCCOCCOCCOCCOCCCNCc3ccc(C(=C\C=C4\N(CCCCS(=O)(=O)[O-])c5ccccc5C4(C)C)/C=C/C4=[N+](CCCCS(=O)(=O)O)c5ccccc5C4(C)C)cc3)c2)c2c1C(=O)CC(C)(C)C2` [HS-131]?
**A.** eHsp90 expression upregulation as determined by HS-131 binding (eHsp90): 20-25 fold; pathogenesis of disease development (animals developing disease) ([1]; day 21-36, N=12/group (FIG. 9A)): comparable to the vehicle control; reduction of bone resorption, histological scoring ([1]; day 36, vs vehicle (FIG. 9E)): 35%; reduction of cartilage damage, histological scoring ([1]; day 36, vs vehicle (FIG. 9E)): 36%; reduction of inflammation, histological scoring ([1]; day 36, vs vehicle (FIG. 9E)): 27%; reduction of pannus, histological scoring ([1]; day 36, vs vehicle (FIG. 9E)): 35%; reduction of periosteal bone, histological scoring ([1]; day 36, vs vehicle (FIG. 9E)): 29%; mean clinical arthritic score ([1]; throughout study period, vs vehicle, p<.001 (FIG. 9B)): significantly reduced; decrease in clinical score, area under the curve ([1]; vs vehicle (FIG. 9C)): ~23%
